These results are taken from US20070078179A1, “Use of a fibrate and orlistat for the treatment of obesity” (Foumier Laboratories Ireland Limited, priority 2003, published 2007).

A short description of the experiment: Effect of fenofibrate and orlistat co-administration on body weight of mice fed a high-fat diet. The class given is in vivo. To be noted: for Gain: body weight gain over 6 weeks, * p<0.05 relative to Group 5 (standard diet); for Gain / Body weight after 6 weeks: mice fed with high-fat diet, drug p.o. mixed with the diet (fenofibrate 25 mg/kg, orlistat 2.5 mg/kg), mean±sem; for Body weight after 6 weeks: in g (unit assumed).

Protocol: This study was designed to evaluate the effects of using a combination of fenofibrate and orlistat on body weight. Method Animals: Mice weighing approximately 20 g were received from CERJ. They were put into individual cages in a temperature-, humidity- and light-controlled room (21-23° C., 12-12 h light-dark cycle). […] After acclimatization, they were randomized into groups of 20 animals, based on body weight. The experimental groups were: • a Group 1: mice fed with high-fat diet • Group 2: mice fed with high-fat diet, treated with fenofibrate 25 mg/kg p.o., mixed with the diet • Group 3: mice fed with high-fat diet, treated with orlistat 2.5 mg/kg p.o., mixed with the diet • Group 4: mice fed with high-fat diet, treated with fenofibrate 25 mg/kg p.o. and orlistat 2.5 mg/kg p.o., mixed with the diet • Group 5: mice fed with standard diet Statistics: All data are presented as mean±sem. Results were subjected to Dunnett's t test. A p<0.05 was considered significant.

In the case of `CCCCCCCCCCC[C@@H](C[C@@H]1OC(=O)[C@H]1CCCCCC)OC(=O)[C@H](CC(C)C)NC=O` (relative stereo) [orlistat, [2S-[2α(R*),3β]]-N-formyl-L-leucine 1-[(3-hexyl-4-oxo-2-oxetanyl)methyl]dodecyl ester], the Gain is 7.59 ± 0.28* and the “Body weight after 6 weeks” value amounted to 27.12 ± 0.39. The “Difference from mice with a standard diet (normalization of the body weight)” value (after 6 weeks of treatment, mice with a high-fat diet compared with mice with a standard diet, Dunnett's t test) is “significant difference”.
Consider `CC(C)OC(=O)C(C)(C)Oc1ccc(C(=O)c2ccc(Cl)cc2)cc1` [fenofibrate], for which the Gain is 7.60 ± 0.43* and the “Body weight after 6 weeks” value stood at 27.25 ± 0.47.
